Measured values taken from patent publication US5863540A, “Adhesion molecule” (Duke University, priority 1993, dated 1999).

Legend:
[1] = system: T cell receptor-mediated T cell activation; assay: T cell receptor-mediated T cell activation (anti-CD3ε mab Leu 4) of PBMC, 3H-thymidine, CD44 peptides; format: cell-based, human
Description: Synthetic peptides were prepared by FMoc or TBoc chemistry, purified usin
HPLC, and resuspended in RPMI media prior to addition to 4 day in vitro
cultures. Following 4 days in culture, 3Hthymidine was added, and
following an incubation of 4 hours, the cultures were harvested using an
automated multiwell harvester using standard techiques.

[2] = system: CD2-Mediated T Cell Activation; assay: T Cell Activation Assay: proliferation of PBMC stimulated with CD2 mabs 35.1 and 9-1; format: cell-based, human; settings: soluble, free protein instead of liposomes, data not shown
Description: CD44 Liposomes. Liposomes were prepared by the method of Mimms et al. ((1981) Biochemistry 20:833-840), using 1 μM purified CD44 or control glycophorin protein, 1 nM L-α-dioleoyl lecthin (Avanti Polar Lipids, Birmingham, Ala.), and 240 nM OG. Liposomes were analyzed for content of the appropriate protein using a novel labelling technique and flow cytometry. Liposomes were incubated with 5-(N-octadecanoyl) aminofluorescein (Molecular Probes, Eugene, Oreg.) in PBS×10 min at room temperature. Fluoresceinated liposomes were then reacted with […] magnetic beads (Dynabeads M-450 Goat anti-Mouse IgG, Dynal Inc., Great Neck, N.Y.) coated with CD44 (A3D8) or anti-glycophorin (E3,E4,E5) mAbs. After 45 minutes (4° C.), with continuous end-over-end rotation, beads were washed ×3 in PBS using a magnet to immobilize the beads during PBS changes. Fluoresceinated liposome-bead conjugates were then analyzed by flow cytometry.
T Cell Activation Assay. PBMC from healthy donors were stimulated with optimal mitogenic concentration of CD2 mabs 35.1 and 9-1 as described (Denning et al.). Where indicated, CD44 or control glycophorin liposomes (final protein range used was 28-140 nM) were added to these cultures 20 min prior to addition of CD2 mabs. […]

Row | Substance | effect on T cell activation (in words) ([1]; 1 mg/ml peptide, anti-CD3 triggered PBMC cultures) | % Inhibition ([1]; peptide 1 mg/ml, Leu 4 1:1000, 4 day culture) [%] | Δ CPM 3H-Thymidine/106 Cells in Culture ([1]; peptide 1 mg/ml, Leu 4 1:1000, 4 day culture, control 199,816) | effect on CD2 stimulated PBMC culture [2]
1 | (C)NRNDVTGGRRDPNHSEGS (CNRNDVTGGRRDPNHSEGS; N-terminal Cys) [CD44-19A] | inhibition of T cell activation | 75 | 50,318 Δ CPM 3H-Thymidine/106 Cells | 
2 | soluble, free CD44 protein: CD44 protein affinity-purified on A3D8-Sepharose from HuT 78 T cell lysate, single band at 80-85 kD |  |  |  | Identical results
